Data reported in PubChem BioAssay (NCI).
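Interpolation was linear, between the two tested concentrations surrounding the appropriate level; five concentrations were tested over 48 hours in 96-well plates. The concentration for full growth arrest is given as TGI.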

Tests used:
Assay in all cases: NCI tumour cell line growth inhibition, 48 h
DU-145 prostate = test system: DU-145 prostate
RXF 393 renal = test system: RXF 393 renal
EKVX NSCLC = test system: EKVX NSCLC
HCT-15 colon = test system: HCT-15 colon
OVCAR-5 ovarian = test system: OVCAR-5 ovarian
UACC-62 melanoma = test system: UACC-62 melanoma
UACC-257 melanoma = test system: UACC-257 melanoma
A549 NSCLC = test system: A549 NSCLC
NCI-H23 lung = test system: NCI-H23 lung
HOP-62 NSCLC = test system: HOP-62 NSCLC
OVCAR-8 ovarian = test system: OVCAR-8 ovarian
ACHN renal = test system: ACHN renal
HOP-92 NSCLC = test system: HOP-92 NSCLC
COLO 205 colon = test system: COLO 205 colon
SR leukemia = test system: SR leukemia
MALME-3M melanoma = test system: MALME-3M melanoma
SF-295 CNS = test system: SF-295 CNS
PC-3 prostate = test system: PC-3 prostate
MDA-N = test system: MDA-N
HCC-2998 colon = test system: HCC-2998 colon
NCI-H226 lung = test system: NCI-H226 lung
CCRF-CEM leukemia = test system: CCRF-CEM leukemia
SK-MEL-2 melanoma = test system: SK-MEL-2 melanoma
NCI-H522 lung = test system: NCI-H522 lung
MDA-MB-231 breast = test system: MDA-MB-231 breast
SK-MEL-5 melanoma = test system: SK-MEL-5 melanoma
OVCAR-4 ovarian = test system: OVCAR-4 ovarian
HL-60(TB) leukemia = test system: HL-60(TB) leukemia
KM12 colon = test system: KM12 colon
SK-MEL-28 melanoma = test system: SK-MEL-28 melanoma
U251 CNS = test system: U251 CNS
NCI-H460 lung = test system: NCI-H460 lung
SN12C renal = test system: SN12C renal
A498 renal = test system: A498 renal
SW-620 colon = test system: SW-620 colon
HS 578T breast = test system: HS 578T breast
NCI/ADR-RES ovarian = test system: NCI/ADR-RES ovarian
CAKI-1 renal = test system: CAKI-1 renal
RPMI-8226 leukemia = test system: RPMI-8226 leukemia
IGROV1 ovarian = test system: IGROV1 ovarian
HT29 colon = test system: HT29 colon
HCT-116 colon = test system: HCT-116 colon
OVCAR-3 ovarian = test system: OVCAR-3 ovarian
K-562 leukemia = test system: K-562 leukemia
BT-549 breast = test system: BT-549 breast
T-47D breast = test system: T-47D breast
LOX IMVI melanoma = test system: LOX IMVI melanoma
SF-539 CNS = test system: SF-539 CNS
UO-31 renal = test system: UO-31 renal
SNB-75 CNS = test system: SNB-75 CNS
MOLT-4 leukemia = test system: MOLT-4 leukemia
TK-10 renal = test system: TK-10 renal
786-0 renal = test system: 786-0 renal
MDA-MB-435 = test system: MDA-MB-435
SNB-19 CNS = test system: SNB-19 CNS
SF-268 CNS = test system: SF-268 CNS
SK-OV-3 ovarian = test system: SK-OV-3 ovarian
M14 melanoma = test system: M14 melanoma
MCF7 breast = test system: MCF7 breast

Work on `CS(=O)(=O)Nc1ccc2c(c1)N(S(C)(=O)=O)CC2COS(C)(=O)=O` (configuration not stated) yielded a TGI (DU-145 prostate) greater than 100 µM, a TGI (RXF 393 renal) of 41.5 µM and a TGI (EKVX NSCLC) greater than 100 µM. For the same compound, the TGI (HCT-15 colon) was greater than 100 µM, the TGI (OVCAR-5 ovarian) was greater than 100 µM and the TGI (UACC-62 melanoma) was greater than 100 µM. It also gave a TGI (UACC-257 melanoma) greater than 100 µM, a TGI (A549 NSCLC) greater than 100 µM and a TGI (NCI-H23 lung) greater than 100 µM. For the same compound, the TGI (HOP-62 NSCLC) was 70.9 µM, the TGI (OVCAR-8 ovarian) was greater than 100 µM and the TGI (ACHN renal) was greater than 100 µM. It also gave a TGI (HOP-92 NSCLC) greater than 100 µM, a TGI (COLO 205 colon) greater than 100 µM and a TGI (SR leukemia) of 93.2 µM. The TGI (MALME-3M melanoma) was greater than 100 µM, the TGI (SF-295 CNS) was greater than 100 µM and the TGI (PC-3 prostate) was greater than 100 µM. For the same compound, the TGI (MDA-N) was greater than 100 µM, the TGI (HCC-2998 colon) was greater than 100 µM and the TGI (NCI-H226 lung) was greater than 100 µM. It also gave a TGI (CCRF-CEM leukemia) greater than 100 µM, a TGI (SK-MEL-2 melanoma) of 71.7 µM and a TGI (NCI-H522 lung) of 43.1 µM. It also gave a TGI (MDA-MB-231 breast) greater than 100 µM, a TGI (SK-MEL-5 melanoma) of 40.7 µM and a TGI (OVCAR-4 ovarian) greater than 100 µM. For the same compound, the TGI (HL-60(TB) leukemia) was 88.3 µM, the TGI (KM12 colon) was greater than 100 µM and the TGI (SK-MEL-28 melanoma) was greater than 100 µM. The TGI (U251 CNS) was 59.2 µM, the TGI (NCI-H460 lung) was greater than 100 µM and the TGI (SN12C renal) was greater than 100 µM. For the same compound, the TGI (A498 renal) was greater than 100 µM, the TGI (SW-620 colon) was greater than 100 µM and the TGI (HS 578T breast) was greater than 100 µM. It also gave a TGI (NCI/ADR-RES ovarian) greater than 100 µM, a TGI (CAKI-1 renal) greater than 100 µM and a TGI (RPMI-8226 leukemia) of 81.4 µM. For the same compound, the TGI (IGROV1 ovarian) was greater than 100 µM, the TGI (HT29 colon) was greater than 100 µM and the TGI (HCT-116 colon) was greater than 100 µM. The TGI (OVCAR-3 ovarian) was greater than 100 µM, the TGI (K-562 leukemia) was greater than 100 µM and the TGI (BT-549 breast) was greater than 100 µM. It also gave a TGI (T-47D breast) greater than 100 µM, a TGI (LOX IMVI melanoma) greater than 100 µM and a TGI (SF-539 CNS) greater than 100 µM. The TGI (UO-31 renal) was greater than 100 µM, the TGI (SNB-75 CNS) was greater than 100 µM and the TGI (MOLT-4 leukemia) was greater than 100 µM. For the same compound, the TGI (TK-10 renal) was greater than 100 µM, the TGI (786-0 renal) was greater than 100 µM and the TGI (MDA-MB-435) was greater than 100 µM.

`CC1(C)OCC(C2OC(OC(=O)c3ccc(C(F)(F)F)cc3)C3OC(C)(C)OC23)O1` (configuration not stated) gave a TGI (DU-145 prostate) greater than 77.5 µM, a TGI (RXF 393 renal) greater than 77.5 µM and a TGI (EKVX NSCLC) greater than 77.5 µM. It also gave a TGI (HCT-15 colon) greater than 77.5 µM, a TGI (OVCAR-5 ovarian) greater than 77.5 µM and a TGI (UACC-62 melanoma) greater than 77.5 µM. For the same compound, the TGI (UACC-257 melanoma) was greater than 77.5 µM, the TGI (A549 NSCLC) was greater than 77.5 µM and the TGI (SNB-19 CNS) was greater than 77.5 µM. The TGI (NCI-H23 lung) was greater than 77.5 µM, the TGI (HOP-62 NSCLC) was greater than 77.5 µM and the TGI (OVCAR-8 ovarian) was greater than 77.5 µM. For the same compound, the TGI (ACHN renal) was greater than 77.5 µM, the TGI (COLO 205 colon) was greater than 77.5 µM and the TGI (SR leukemia) was greater than 77.5 µM. The TGI (MALME-3M melanoma) was greater than 77.5 µM, the TGI (SF-268 CNS) was greater than 77.5 µM and the TGI (SF-295 CNS) was greater than 77.5 µM. The TGI (PC-3 prostate) was greater than 77.5 µM, the TGI (MDA-N) was greater than 77.5 µM and the TGI (HCC-2998 colon) was greater than 77.5 µM. The TGI (NCI-H226 lung) was greater than 77.5 µM, the TGI (CCRF-CEM leukemia) was greater than 77.5 µM and the TGI (SK-MEL-2 melanoma) was greater than 77.5 µM. It also gave a TGI (NCI-H522 lung) greater than 77.5 µM, a TGI (MDA-MB-231 breast) greater than 77.5 µM and a TGI (SK-MEL-5 melanoma) greater than 77.5 µM. It also gave a TGI (OVCAR-4 ovarian) greater than 77.5 µM, a TGI (KM12 colon) greater than 77.5 µM and a TGI (SK-OV-3 ovarian) greater than 77.5 µM. The TGI (SK-MEL-28 melanoma) was greater than 77.5 µM, the TGI (U251 CNS) was greater than 77.5 µM and the TGI (NCI-H460 lung) was greater than 77.5 µM. It also gave a TGI (M14 melanoma) greater than 77.5 µM, a TGI (SN12C renal) greater than 77.5 µM and a TGI (A498 renal) greater than 77.5 µM. The TGI (SW-620 colon) was greater than 77.5 µM, the TGI (NCI/ADR-RES ovarian) was greater than 77.5 µM and the TGI (CAKI-1 renal) was greater than 77.5 µM. For the same compound, the TGI (RPMI-8226 leukemia) was greater than 77.5 µM, the TGI (IGROV1 ovarian) was greater than 77.5 µM and the TGI (HT29 colon) was greater than 77.5 µM. It also gave a TGI (HCT-116 colon) greater than 77.5 µM, a TGI (OVCAR-3 ovarian) greater than 77.5 µM and a TGI (K-562 leukemia) greater than 77.5 µM. The TGI (BT-549 breast) was greater than 77.5 µM, the TGI (LOX IMVI melanoma) was greater than 77.5 µM and the TGI (SF-539 CNS) was greater than 77.5 µM. For the same compound, the TGI (UO-31 renal) was greater than 77.5 µM, the TGI (MCF7 breast) was greater than 77.5 µM and the TGI (SNB-75 CNS) was greater than 77.5 µM. It also gave a TGI (MOLT-4 leukemia) greater than 77.5 µM, a TGI (TK-10 renal) greater than 77.5 µM and a TGI (786-0 renal) greater than 77.5 µM. It also gave a TGI (MDA-MB-435) greater than 77.5 µM.

For `CCCCS/C(=C(/C#N)C(N)=O)c1cc2c([nH]1)CCCC2`, the TGI (DU-145 prostate) was 25.4 µM, the TGI (RXF 393 renal) was 38.6 µM and the TGI (EKVX NSCLC) was 24.4 µM. The TGI (HCT-15 colon) was 21.4 µM, the TGI (OVCAR-5 ovarian) was greater than 100 µM and the TGI (UACC-62 melanoma) was 22.8 µM. It also gave a TGI (UACC-257 melanoma) of 32.4 µM, a TGI (A549 NSCLC) greater than 100 µM and a TGI (SNB-19 CNS) of 34.4 µM. It also gave a TGI (NCI-H23 lung) of 36.7 µM, a TGI (HOP-62 NSCLC) of 72 µM and a TGI (OVCAR-8 ovarian) of 36.5 µM. It also gave a TGI (ACHN renal) of 39.7 µM, a TGI (HOP-92 NSCLC) of 38.7 µM and a TGI (COLO 205 colon) of 27.9 µM. For the same compound, the TGI (MALME-3M melanoma) was 23.8 µM, the TGI (SF-268 CNS) was 26.7 µM and the TGI (SF-295 CNS) was 28.5 µM. The TGI (PC-3 prostate) was 46.5 µM, the TGI (MDA-N) was 18.3 µM and the TGI (HCC-2998 colon) was 26.7 µM. For the same compound, the TGI (NCI-H226 lung) was 34.7 µM, the TGI (CCRF-CEM leukemia) was 48.9 µM and the TGI (SK-MEL-2 melanoma) was 34.7 µM. It also gave a TGI (MDA-MB-231 breast) of 30.3 µM, a TGI (SK-MEL-5 melanoma) of 26.7 µM and a TGI (OVCAR-4 ovarian) of 36.1 µM. It also gave a TGI (HL-60(TB) leukemia) of 11.6 µM, a TGI (KM12 colon) of 23.5 µM and a TGI (SK-OV-3 ovarian) of 93.8 µM. It also gave a TGI (SK-MEL-28 melanoma) of 28.2 µM, a TGI (U251 CNS) of 31.2 µM and a TGI (NCI-H460 lung) of 48.3 µM. For the same compound, the TGI (SN12C renal) was 43.1 µM, the TGI (A498 renal) was 31.4 µM and the TGI (SW-620 colon) was 24.6 µM. For the same compound, the TGI (NCI/ADR-RES ovarian) was 28.6 µM, the TGI (CAKI-1 renal) was 29.5 µM and the TGI (RPMI-8226 leukemia) was 29.6 µM. It also gave a TGI (HT29 colon) of 15 µM, a TGI (HCT-116 colon) of 23 µM and a TGI (OVCAR-3 ovarian) of 36.5 µM. The TGI (K-562 leukemia) was greater than 100 µM, the TGI (BT-549 breast) was 27.8 µM and the TGI (LOX IMVI melanoma) was 21.1 µM. The TGI (SF-539 CNS) was 30 µM, the TGI (UO-31 renal) was 25.8 µM and the TGI (MCF7 breast) was 50.4 µM. The TGI (SNB-75 CNS) was 29.1 µM, the TGI (MOLT-4 leukemia) was 38.6 µM and the TGI (TK-10 renal) was 29 µM. For the same compound, the TGI (786-0 renal) was 24 µM and the TGI (MDA-MB-435) was 11.9 µM.
